Experiment [1] has as its system KURAMOCHI
The experiment can be described thus: drug sensitivity score (DSS2) on cancer cell count; higher = more sensitive; extreme values may be limits of the assay. The conditions noted are these: 72 h. An outline of the steps:
(§1)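 Ovarian cancer cells grown alone or 1:1 with lung or skin fibroblasts in direct co-culture were treated for 72 h on 384-well plates carrying 528 approved and investigational compounds at 5 concentrations. Fixed cells were stained for CK8/18 with Hoechst and imaged to count cancer cells. A drug sensitivity score was then derived in Breeze from logistic curve fits.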

Experiment [2] has as its system OVCAR8. The description is as above. The following applies: 72 h. In short, it runs like this:
as §1

[3] abbreviates: co-cultured fibroblast: BJHTERT.
[4] abbreviates: co-cultured fibroblast: none (monoculture).

Regarding `O=C(CCNC(=O)c1ccc(OC(F)(F)F)cc1)N[C@@H]1CCCc2ccccc21` [ML390], the drug sensitivity score was 3.4 DSS in experiment [1] (setting [3]); 2.9 DSS in experiment [1] (co-cultured fibroblast: WI38); 4 DSS in experiment [1] (setting [4]); 8.5 DSS in experiment [2] (setting [3]); 0 DSS in experiment [2] (co-cultured fibroblast: WI38); 8.1 DSS in experiment [2] (setting [4]).
Consider `CCOC(=O)CCNc1cc(N2CCc3ccccc3CC2)nc(-c2ccccn2)n1` [GSK-J4], for which the drug sensitivity score in experiment [1] (setting [3]) came to 3.1 DSS; in experiment [1] (co-cultured fibroblast: WI38), 2.7 DSS; in experiment [1] (setting [4]), 10.5 DSS; in experiment [2] (setting [3]), 1.6 DSS; in experiment [2] (co-cultured fibroblast: WI38) it was 0.3 DSS; in experiment [2] (setting [4]), 4.2 DSS.
As for `CC(C)C[C@H](NC(=O)[C@H](CCc1ccccc1)NC(=O)CN1CCOCC1)C(=O)N[C@@H](Cc1ccccc1)C(=O)N[C@@H](CC(C)C)C(=O)[C@@]1(C)CO1` [Carfilzomib], the drug sensitivity score in experiment [1] (setting [3]) worked out at 21.8 DSS; in experiment [1] (co-cultured fibroblast: WI38), 23.4 DSS; in experiment [1] (setting [4]), 22.6 DSS; in experiment [2] (setting [3]), 26.2 DSS; in experiment [2] (co-cultured fibroblast: WI38), 18 DSS; in experiment [2] (setting [4]), 17.8 DSS.
Turning to `COc1cc(Nc2c(C#N)cnc3cc(OCCCN4CCN(C)CC4)c(OC)cc23)c(Cl)cc1Cl` [Bosutinib], the drug sensitivity score in experiment [1] (setting [3]) was found to be 12.9 DSS; in experiment [1] (co-cultured fibroblast: WI38), 11 DSS; in experiment [1] (setting [4]), 12.6 DSS; in experiment [2] (setting [3]), 8.6 DSS; in experiment [2] (co-cultured fibroblast: WI38), 9.1 DSS; in experiment [2] (setting [4]), 8.9 DSS.
With `CC(=O)O[C@]1(C(C)=O)CC[C@H]2[C@@H]3C=C(C)C4=CC(=O)CC[C@]4(C)[C@H]3CC[C@@]21C` [Megestrol acetate], the drug sensitivity score in experiment [1] (setting [3]) is 0 DSS; in experiment [1] (co-cultured fibroblast: WI38) it was 6 DSS; in experiment [1] (setting [4]), 0 DSS; in experiment [2] (setting [3]) it was 0 DSS; in experiment [2] (co-cultured fibroblast: WI38) it was 0 DSS; in experiment [2] (setting [4]), 0 DSS.
Take `Cc1ccc(Nc2nccc(N(C)c3ccc4c(C)n(C)nc4c3)n2)cc1S(N)(=O)=O` [Pazopanib]: the drug sensitivity score in experiment [1] (setting [3]) is 2 DSS; in experiment [1] (co-cultured fibroblast: WI38), 2 DSS; in experiment [1] (setting [4]), 5.9 DSS; in experiment [2] (setting [3]), 0 DSS; in experiment [2] (co-cultured fibroblast: WI38) it was 3.5 DSS; in experiment [2] (setting [4]), 0 DSS.
For `O=C(O)CC1CC(c2ccccc2)=NO1` (stereo not given) [VGX-1027], the drug sensitivity score in experiment [1] (setting [3]) turned out to be 0 DSS; in experiment [1] (co-cultured fibroblast: WI38), 0 DSS; in experiment [1] (setting [4]), 0 DSS; in experiment [2] (setting [3]) it was 0.3 DSS; in experiment [2] (co-cultured fibroblast: WI38) it was 0 DSS; in experiment [2] (setting [4]), 0 DSS.
With `CCc1cc2c(cc1N1CCC(N3CCOCC3)CC1)C(C)(C)c1[nH]c3cc(C#N)ccc3c1C2=O` [Alectinib], the drug sensitivity score in experiment [1] (setting [3]), in experiment [1] (co-cultured fibroblast: WI38), in experiment [1] (setting [4]), in experiment [2] (setting [3]), in experiment [2] (co-cultured fibroblast: WI38) and in experiment [2] (setting [4]) was 0 DSS throughout.
In the case of `O=C(O)c1ccc(O)c2ncccc12` [IOX-1], the drug sensitivity score came out at 3.6 DSS in experiment [1] (setting [3]); 5.9 DSS in experiment [1] (co-cultured fibroblast: WI38); 5.5 DSS in experiment [1] (setting [4]); 3.4 DSS in experiment [2] (setting [3]); 0.7 DSS in experiment [2] (co-cultured fibroblast: WI38); 4.8 DSS in experiment [2] (setting [4]).
Turning to `O=C(Nc1cccnc1)N1CCC(Cc2cccc(Oc3ccc(C(F)(F)F)cn3)c2)CC1` [PF-3845], the drug sensitivity score in experiment [1] (setting [3]) worked out at 0.5 DSS; in experiment [1] (co-cultured fibroblast: WI38), 0 DSS; in experiment [1] (setting [4]) it was 0 DSS; in experiment [2] (setting [3]) it was 0 DSS; in experiment [2] (co-cultured fibroblast: WI38), 0 DSS; in experiment [2] (setting [4]), 1.9 DSS.
As to `Cn1nccc1Nc1nccc(-c2ccn([C@H](CO)c3ccc(Cl)c(F)c3)c(=O)c2)n1` [Ravoxertinib], the drug sensitivity score in experiment [1] (setting [3]) was 3.6 DSS; in experiment [1] (co-cultured fibroblast: WI38) it was 3.2 DSS; in experiment [1] (setting [4]) it was 3.3 DSS; in experiment [2] (setting [3]) it was 2.2 DSS; in experiment [2] (co-cultured fibroblast: WI38), 4.3 DSS; in experiment [2] (setting [4]), 4.9 DSS.
As for `CCC1=C[C@@H]2CN(C1)Cc1c([nH]c3ccccc13)[C@@](C(=O)OC)(c1cc3c(cc1OC)N(C)[C@H]1[C@@](O)(C(=O)OC)[C@H](OC(C)=O)[C@]4(CC)C=CCN5CC[C@]31[C@@H]54)C2` [Vinorelbine], the drug sensitivity score in experiment [1] (setting [3]) came to 29.3 DSS; in experiment [1] (co-cultured fibroblast: WI38), 25.7 DSS; in experiment [1] (setting [4]), 25.6 DSS; in experiment [2] (setting [3]), 38.8 DSS; in experiment [2] (co-cultured fibroblast: WI38) it was 33 DSS; in experiment [2] (setting [4]), 29.3 DSS.
As for `O=C1NC(=O)[C@@H](c2cn3c4c(cccc24)CCC3)[C@@H]1c1c[nH]c2ccccc12` [Tivantinib], the drug sensitivity score was 5.4 DSS in experiment [1] (setting [3]); 5.9 DSS in experiment [1] (co-cultured fibroblast: WI38); 14 DSS in experiment [1] (setting [4]); 4 DSS in experiment [2] (setting [3]); 6.4 DSS in experiment [2] (co-cultured fibroblast: WI38); 3.8 DSS in experiment [2] (setting [4]).
In the case of `Cc1cn(-c2cc(NC(=O)c3ccc(C)c(Nc4nccc(-c5cccnc5)n4)c3)cc(C(F)(F)F)c2)cn1` [Nilotinib], the drug sensitivity score in experiment [1] (setting [3]) was found to be 0 DSS; in experiment [1] (co-cultured fibroblast: WI38), 8 DSS; in experiment [1] (setting [4]) it was 9.8 DSS; in experiment [2] (setting [3]), 0 DSS; in experiment [2] (co-cultured fibroblast: WI38), 11 DSS; in experiment [2] (setting [4]), 3 DSS.
Turning to `N#CC[C@H](C1CCCC1)n1cc(-c2ncnc3[nH]ccc23)cn1` [Ruxolitinib], the drug sensitivity score in experiment [1] (setting [3]) was 0 DSS; in experiment [1] (co-cultured fibroblast: WI38) it was 0 DSS; in experiment [1] (setting [4]), 0 DSS; in experiment [2] (setting [3]), 1.3 DSS; in experiment [2] (co-cultured fibroblast: WI38), 2.7 DSS; in experiment [2] (setting [4]), 2.5 DSS.
Consider `CCc1c2c(nc3ccc(O)cc13)-c1cc3c(c(=O)n1C2)COC(=O)[C@]3(O)CC` [SN-38], for which the drug sensitivity score in experiment [1] (setting [3]) was 31.7 DSS; in experiment [1] (co-cultured fibroblast: WI38) it was 39.5 DSS; in experiment [1] (setting [4]) it was 41 DSS; in experiment [2] (setting [3]) it was 40.9 DSS; in experiment [2] (co-cultured fibroblast: WI38) it was 40.9 DSS; in experiment [2] (setting [4]), 45 DSS.
`CN(C)C1CCN(C(=O)c2ccc(NC(=O)Nc3ccc(-c4nc(N5CCOCC5)nc(N5CCOCC5)n4)cc3)cc2)CC1` [Gedatolisib]: the drug sensitivity score turned out to be 16.8 DSS in experiment [1] (setting [3]); 16 DSS in experiment [1] (co-cultured fibroblast: WI38); 21.3 DSS in experiment [1] (setting [4]); 8.7 DSS in experiment [2] (setting [3]); 2 DSS in experiment [2] (co-cultured fibroblast: WI38); 8.2 DSS in experiment [2] (setting [4]).
As for `Nc1ncnc2c1nc(N)n2[C@@H]1O[C@H](CO)[C@@H](O)[C@H]1O` [8-amino-adenosine], the drug sensitivity score in experiment [1] (setting [3]) is 21 DSS; in experiment [1] (co-cultured fibroblast: WI38), 20.3 DSS; in experiment [1] (setting [4]) it was 21.4 DSS; in experiment [2] (setting [3]), 17.9 DSS; in experiment [2] (co-cultured fibroblast: WI38), 16.5 DSS; in experiment [2] (setting [4]), 19.5 DSS.
Take `Nc1nc2cc(-c3ccc4ncc(C(=O)N5CCOCC5)n4c3)ccc2o1` [Serabelisib]: the drug sensitivity score in experiment [1] (setting [3]) came out at 3.3 DSS; in experiment [1] (co-cultured fibroblast: WI38) it was 0.4 DSS; in experiment [1] (setting [4]), 3.1 DSS; in experiment [2] (setting [3]), 0.8 DSS; in experiment [2] (co-cultured fibroblast: WI38) it was 0 DSS; in experiment [2] (setting [4]) it was 0 DSS.
Turning to `CC1CCC(n2c3cnccc3c3cnc(Nc4ccc5c(n4)CCN(C(=O)CO)C5)nc32)CC1` (stereo not given) [AMG-925], the drug sensitivity score in experiment [1] (setting [3]) amounted to 0 DSS; in experiment [1] (co-cultured fibroblast: WI38), 2.2 DSS; in experiment [1] (setting [4]), 0 DSS; in experiment [2] (setting [3]), 0 DSS; in experiment [2] (co-cultured fibroblast: WI38), 0 DSS; in experiment [2] (setting [4]), 0 DSS.

Source of the values: the supplement of paper PMC12420376.
